In ChEMBL document CHEMBL5223068, “Novel thiobarbiturates as potent urease inhibitors with potential antibacterial activity: Design, synthesis, radiolabeling and biodistribution study” (Bioorg Med Chem, 2020):
Converted amounts (≈) assume the structure as drawn.

How the values were obtained:
[1] = Inhibition of urease (unknown origin) incubated for 30 mins by microplate reader based analysis
Klebsiella pneumoniae [2] = experiment: Antibacterial activity against clinical isolate Klebsiella pneumoniae incubated for 18 to 24 hrs by broth microdilution assay; format: functional; conditions: time 18-24 hrs
[3] = Inhibition of urease (unknown origin) assessed as reduction on ammonia production incubated for 15 mins by indophenol reagent based microplate reader assay
Escherichia coli = experiment: Antibacterial activity against Escherichia coli incubated for 24 to 48 hrs; format: functional; conditions: time 24-48 hrs
Klebsiella pneumoniae [4] = experiment: Antibacterial activity against Klebsiella pneumoniae ATCC 700603 incubated for 18 to 24 hrs by broth microdilution assay; format: functional; conditions: time 18-24 hrs
Proteus vulgaris = experiment: Antibacterial activity against Proteus vulgaris ATCC 13315 incubated for 18 to 24 hrs by broth microdilution assay; format: functional; conditions: time 18-24 hrs
Proteus mirabilis = experiment: Antibacterial activity against clinical isolate Proteus mirabilis incubated for 18 to 24 hrs by broth microdilution assay; format: functional; conditions: time 18-24 hrs
[5] = Drug uptake in Swiss albino muscle infected mouse kidney measured upto 180 mins; format: ADME, tissue-based; conditions: in vivo, 3 h
[6] = Biodistribution in Swiss albino muscle infected mouse assessed as ratio of infected muscle to normal muscle measured after 30 mins post injection; format: ADME, organism-based, Muscle tissue; conditions: in vivo, 0.5 h
[7] = Biodistribution in Swiss albino muscle infected mouse assessed as ratio of infected muscle to normal muscle measured at all time intervals; format: ADME, organism-based, Muscle tissue; conditions: in vivo

Compound	IC50 [1] [µM]	MIC (Klebsiella pneumoniae [4]) [µg/mL]	other results
Cc1ccccc1NC(=O)CC1C(=O)NC(=S)NC1=O	52.1		
O=C(CC1C(=O)NC(=S)NC1=O)N/N=C/c1ccccc1	54.4		
O=C(CC1C(=O)NC(=S)NC1=O)Nc1ccc(F)cc1	44.3		
CC(C)CNC(=O)CC1C(=O)NC(=S)NC1=O	16.9		
O=C(CC1C(=O)NC(=S)NC1=O)NCCNC(=O)CC1C(=O)NC(=S)NC1=O	29.8		MIC (Klebsiella pneumoniae [2]): 62.5 µg/mL (≈ 146 µM)
Cc1cccc(NC(=O)CC2C(=O)NC(=S)NC2=O)c1	76.5		
O=C(CC1C(=O)NC(=S)NC1=O)N/N=C/c1ccccc1O	92.9		
CCN1C(=O)C(C(c2ccccc2)C2C(=O)N(CC)C(=S)N(CC)C2=O)C(=O)N(CC)C1=S			IC50 [3]: 7.45 µM
O=C1C(C(=O)C(F)(F)F)C(=O)N(c2ccc(-c3ncc(-c4ccccc4)[nH]3)cc2)C(=S)N1c1ccc(Cl)cc1 (stereo unspecified)			MIC (Escherichia coli): ≤ 6.25 µg/mL
NNC(=O)CC1C(=O)NC(=S)NC1=O	60.3	125 (≈ 578 µM)	
CCOC(=O)CC1C(=O)NC(=S)NC1=O	10.1	62.5 (≈ 271 µM)	MIC (Proteus vulgaris): 31.2 µg/mL (≈ 136 µM); MIC (Klebsiella pneumoniae [2]): 31.2 µg/mL (≈ 136 µM)
Cc1cccc(NC(=O)CC2C(=O)NC(=S)NC2=O)c1C	71		
CCOC(=O)/C(=C\N(C)C)C1C(=O)NC(=S)NC1=O	13.6	31.2 (≈ 110 µM)	MIC (Klebsiella pneumoniae [2]): 62.5 µg/mL (≈ 219 µM); MIC (Proteus mirabilis): 15 µg/mL (≈ 52.6 µM)
O=C(CC1C(=O)NC(=S)NC1=O)Nc1ccccc1	20.8		
CC1=C(C(=O)O)N2C(=O)[C@@H](NC(=O)[C@H](N)c3ccccc3)[C@H]2SC1 [CEPHALEXIN ANHYDROUS]		125 (≈ 360 µM)	MIC (Proteus vulgaris): 125 µg/mL (≈ 360 µM); MIC (Klebsiella pneumoniae [2]): > 250 µg/mL; MIC (Proteus mirabilis): 125 µg/mL (≈ 360 µM)
Cc1ccc(NC(=O)CC2C(=O)NC(=S)NC2=O)c(C)c1	75.4		
NC(=O)NNC(=O)CC1C(=O)NC(=S)NC1=O	27.1	31.2 (≈ 121 µM)	MIC (Proteus vulgaris): 16 µg/mL (≈ 61.7 µM); MIC (Klebsiella pneumoniae [2]): 62.5 µg/mL (≈ 241 µM)
O=C(CC1C(=O)NC(=S)NC1=O)OCc1ccccc1	74.7	125 (≈ 428 µM)	
O=C1NC(=S)NC(=O)C1CC(=O)N1CCOCC1	8.21	62.5 (≈ 230 µM)	Drug uptake [5]: Active; Ratio [6]: 3.72; MIC (Proteus vulgaris): 62.5 µg/mL (≈ 230 µM); MIC (Klebsiella pneumoniae [2]): 62.5 µg/mL (≈ 230 µM); MIC (Proteus mirabilis): 62.5 µg/mL (≈ 230 µM); Ratio [7]: > 1
CCCNC(=O)CC1C(=O)NC(=S)NC1=O	11		
Cc1ccc(/C=N/NC(=O)CC2C(=O)NC(=S)NC2=O)cc1	67.7		
COC(=O)c1ccc(NC(=O)CC2C(=O)NC(=S)NC2=O)cc1	22.9		
NC(N)=S [THIOUREA]	20		IC50 [3]: ≤ 21.1 µM
